US4876260A, “Oxathiolanes” (State of Israel, Israel Institute of Biological Research, priority 1988, dated 1989)

Tests used:
[1] = system: muscarinic receptors (3H-QNB sites, cerebellum, mainly M2); test: biochemical; type: binding, rat; settings: for a:b": (h) Ki(3H-PZ) forebrain : Ki(3H-QNB) cerebellum; for b:b": (j) Ki(3H-QNB) forebrain : Ki(3H-QNB) cerebellum
[2] = target: T1, M1 muscarinic receptors (3H-PZ sites, forebrain) (Rattus norvegicus, UniProt P08482); test: Displacement of 3H-Pirenzepine (3H-PZ, selective M1 antagonist) from rat forebrain homogenate; type: binding; settings: for Ki: (a) forebrain
T1 sequence (P08482 1-460): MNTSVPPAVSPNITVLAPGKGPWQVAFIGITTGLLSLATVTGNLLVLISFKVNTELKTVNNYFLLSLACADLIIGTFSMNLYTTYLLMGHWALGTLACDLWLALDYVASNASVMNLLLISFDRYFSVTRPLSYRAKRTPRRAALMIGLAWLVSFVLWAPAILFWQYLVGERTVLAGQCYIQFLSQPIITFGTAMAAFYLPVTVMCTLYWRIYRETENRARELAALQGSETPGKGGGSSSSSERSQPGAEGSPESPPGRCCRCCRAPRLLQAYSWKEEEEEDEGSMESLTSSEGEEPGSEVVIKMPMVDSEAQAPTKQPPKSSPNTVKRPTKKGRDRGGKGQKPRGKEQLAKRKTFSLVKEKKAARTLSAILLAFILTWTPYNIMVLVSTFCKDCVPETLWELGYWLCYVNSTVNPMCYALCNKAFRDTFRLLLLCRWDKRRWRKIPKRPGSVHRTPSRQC

[3] = target: T2, M1 muscarinic receptors (3H-PZ sites, frontal cortex) (Rattus norvegicus, UniProt P08482); test: Displacement of 3H-PZ from rat frontal cortex homogenate; type: binding; settings: for Ki: (a') frontal cortex, read-out: Ki(3H-PZ); for a':c', Ki(3H-PZ):Ki(3H-CD): (g) frontal cortex ratio
T2 sequence (P08482 1-460): T1 sequence (P08482 1-460)

[4] = system: isolated guinea-pig ileum; test: Contraction of isolated guinea-pig ileum preparation
From the text: From this Table, it appears that compounds (III) were not so effective in contracting the guinea pig ileum preparation.

mice = test: Pharmacodynamic profile and general toxicity in mice; type: in vivo, CD-1 mice
Procedure: Male white mice of the CD-1 strain supplied by Charles River Ltd. (U.K.) were used throughout. An acclimatization period of at least three days was allowed between arrival and commencement of a particular experimental series. The animals were fed a complete commercial pelleted rodent diet without restriction during the acclimatization and study periods. Animals had free access to tap water. Body weights during testing were mostly within 20-28 g.
Test materials were prepared as aqueous solutions in physiological saline (0.9% NaCl), up to a maximum concentration of 10 mg./ml. All materials were freshly prepared on the morning prior to each dosing session. Dosages were expressed gravimetrically (mg./kg.), in terms of the materials as received.
Groups of mice (mostly n=5) received either i.v. or oral administration of the test materials at various dose levels. Dose volumes appropriate for respective dose levels selected, were determined for each animal according to body weights on the day of dosing. Any behavioral changes occurring during one to two hours after administration, as well as incidence of death up to 24 hours after dosing were recorded.

[5] = 25 mg/kg i.v., listed as (-)-III AF122A
[6] = 50 mg/kg i.v., listed as (-)-III AF122A
[7] = 100 mg/kg i.v., immed = immediately
[8] = 200 mg/kg p.o., listed as (-)-III AF122A
[9] = 10 mg/kg i.v., listed as (-)-III AF122B
[10] = 25 mg/kg i.v., listed as (-)-III AF122B
[11] = 50 mg/kg i.v., listed as (-)-III AF122B
[12] = 200 mg/kg p.o., listed as (-)-III AF122B
[13] = 50 mg/kg i.v., listed as (+)-III AF122A
[14] = 200 mg/kg p.o., listed as (+)-III AF122A

C[C@@H]1O[C@]2(CS1)CN1CCC2CC1 (relative stereo) [compound 3, 2-methylspiro(1,3-oxathiolan-5,3')quinuclidine]
a:b" [1]: 0.52
b:b" [1]: 0.88
a:b, Ki(3H-PZ):Ki(3H-QNB) [2]: 0.59
Ki [2]: 14600 ± 2900 nM

C[C@H]1O[C@]2(CS1)CN1CCC2CC1 (relative stereo) [compound 4, 2-methylspiro(1,3-oxathiolan-5,3')quinuclidine]
a':b', Ki(3H-PZ):Ki(3H-QNB) [3]: 0.13
Ki [3]: 960 ± 50 nM
a':c', Ki(3H-PZ):Ki(3H-CD) [3]: 2.5
a:b" [1]: 0.07
a':b" ([1]; (i) Ki(3H-PZ) frontal cortex : Ki(3H-QNB) cerebellum): 0.1
b:b" [1]: 0.47
b':b" ([1]; (k) Ki(3H-QNB) frontal cortex : Ki(3H-QNB) cerebellum): 0.39
a:b, Ki(3H-PZ):Ki(3H-QNB) [2]: 0.14
Ki [2]: 1000 ± 400 nM
Agonist type (remarks) [4]: Full agonist

C[C@H]1O[C@]2(CS1)CN1CCC2CC1 (single isomer, unassigned) [Compound #5, 2-methylspiro(1,3-oxathiolan-5,3')quinuclidine]
Ki [3]: 410 ± 80 nM
a':c', Ki(3H-PZ):Ki(3H-CD) [3]: 2.1
a:b" [1]: 0.14
b:b" [1]: 0.47
a:b, Ki(3H-PZ):Ki(3H-QNB) [2]: 0.3
Ki [2]: 1100 ± 300 nM

CC1OCC2(CN3CCC2CC3)S1 (single isomer, unassigned) [compound 12, 2-methylspiro(1,3-oxathiolan-4,3')quinuclidine]
Mortality, No. dead/total treated (mice; 10 mg/kg i.v., listed as (-)-III AF122A): 0/5
Exophthalmus, No. affected/total treated (mice; 25 mg/kg i.v.): 4/5
Convulsive seizures, No. affected/total treated (mice; [5]): 1/5
Mortality, No. dead/total treated (mice; [5]): 1/5
Mortality, time after drug administration (mice; [5]): 10 s
Respiratory distress, No. affected/total treated (mice; [5]): 4/5
Tremors, No. affected/total treated (mice; [5]): 4/5
Convulsive seizures, No. affected/total treated (mice; [6]): 1/1
Mortality, No. dead/total treated (mice; [6]): 1/1
Mortality, time after drug administration (mice; [6]): 10 s
Tremors, No. affected/total treated (mice; [6]): 1/1
Mortality, time after drug administration (mice; [7]): immed
Mortality, No. dead/total treated (mice; 100 mg/kg i.v., listed as (-)-III AF122A): 1/1
Mortality, No. dead/total treated (mice; 100 mg/kg p.o., listed as (-)-III AF122A): 0/5
Tremors, No. affected/total treated (mice; 200 mg/kg p.o.): 3/5
Convulsive seizures, No. affected/total treated (mice; [8]): 1/5
Mortality, No. dead/total treated (mice; [8]): 1/5
Respiratory distress, No. affected/total treated (mice; [8]): 3/5
Vocalization, No. affected/total treated (mice; [8]): 2/5
Mortality, time after drug administration (mice; 200 mg/kg p.o., m = minutes, listed as (-)-III AF122A): 10 m
Ki [3]: 350 ± 40 nM

C[C@H]1O[C@]2(CS1)CN1CCC2CC1 (single isomer, unassigned) [compound 6, 2-methylspiro(1,3-oxathiolan-5,3')quinuclidine]
Ki [3]: 4630 ± 420 nM
a':c', Ki(3H-PZ):Ki(3H-CD) [3]: 0.6
a:b" [1]: 0.1
b:b" [1]: 0.48
a:b, Ki(3H-PZ):Ki(3H-QNB) [2]: 0.20
Ki [2]: 9600 ± 1800 nM

CC1OCC2(CN3CCC2CC3)S1 (single isomer, unassigned) [compound 9, 2-methylspiro(1,3-oxathiolan-4,3')quinuclidine]
Analgesia (nonresponsiveness to tail pinch), No. affected/total treated (mice; [9]): 3/5
Mortality, No. dead/total treated (mice; [9]): 0/5
Analgesia (nonresponsiveness to tail pinch), No. affected/total treated (mice; 25 mg/kg i.v.): 5/5
Vocalization, No. affected/total treated (mice; 25 mg/kg i.v.): 1/5
Altered motor activity (mice; [10]): a+h
Convulsive seizures, No. affected/total treated (mice; [10]): 3/5
Mortality, No. dead/total treated (mice; [10]): 0/5
Respiratory distress, No. affected/total treated (mice; [10]): 2/5
Tremors, No. affected/total treated (mice; [10]): 3/5
Convulsive seizures, No. affected/total treated (mice; [11]): 2/2
Mortality, No. dead/total treated (mice; [11]): 2/2
Mortality, time after drug administration (mice; [11]): 5 s
Altered motor activity (mice; 50 mg/kg p.o.): a+h
Mortality, time after drug administration (mice; [7]): immed
Mortality, No. dead/total treated (mice; 100 mg/kg i.v., listed as (-)-III AF122B): 2/2
Convulsive seizures, No. affected/total treated (mice; 100 mg/kg p.o.): 2/5
Respiratory distress, No. affected/total treated (mice; 100 mg/kg p.o.): 1/5
Tremors, No. affected/total treated (mice; 100 mg/kg p.o.): 1/5
Mortality, No. dead/total treated (mice; 100 mg/kg p.o., listed as (-)-III AF122B): 1/5
Analgesia (nonresponsiveness to tail pinch), No. affected/total treated (mice; [12]): 3/4
Convulsive seizures, No. affected/total treated (mice; [12]): 4/4
Mortality, No. dead/total treated (mice; [12]): 4/4
Respiratory distress, No. affected/total treated (mice; [12]): 3/5
Vocalization, No. affected/total treated (mice; [12]): 2/4
Mortality, time after drug administration (mice; 200 mg/kg p.o., m = minutes, listed as (-)-III AF122B): 20 m
Ki [3]: 12100 nM
Contraction of guinea pig ileum (in words) ([4]; listed as (-)-AF122B): inconsistent contractile response: sometimes at high concentrations it induced contractions, whereas at other times it did not

CC1OCC2(CN3CCC2CC3)S1 (single isomer, unassigned) [compound 13, 2-methylspiro(1,3-oxathiolan-4,3')quinuclidine]
Mortality, No. dead/total treated (mice; 10 mg/kg i.v., listed as (+)-III AF122A): 0/5
Mortality, No. dead/total treated (mice; 25 mg/kg i.v., listed as (+)-III AF122A): 0/5
Exophthalmus, No. affected/total treated (mice; 50 mg/kg i.v.): 3/5
Convulsive seizures, No. affected/total treated (mice; [13]): 5/5
Mortality, No. dead/total treated (mice; [13]): 4/5
Mortality, time after drug administration (mice; [13]): 30 s
Tremors, No. affected/total treated (mice; [13]): 4/5
Mortality, No. dead/total treated (mice; 50 mg/kg p.o.): 0/5
Mortality, time after drug administration (mice; [7]): immed
Mortality, No. dead/total treated (mice; 100 mg/kg i.v., listed as (+)-III AF122A): 1/1
Mortality, No. dead/total treated (mice; 100 mg/kg p.o., listed as (+)-III AF122A): 0/5
Altered motor activity (mice; [14]): a+h
Mortality, No. dead/total treated (mice; [14]): 0/5
Ki [3]: 4210 ± 470 nM
